{
  "source": "patent US20180289008A1",
  "about": "“METHODS FOR WILDFIRE CONTROL, INVASIVE PLANT CONTROL, AND RESIDUAL CONTROL OF INVASIVE PLANTS” (priority 2017, published 2018)",
  "key": {"[1]": {"tested_on": "downy brome (Bromus tectorum)", "assay": "Herbicide efficacy field trial, visual percent control of downy brome", "format": "in vivo", "conditions": "4 YAT", "description": "The present inventors conducted a field trial to evaluate the effectiveness of herbicides for long-term downy brome and Dalmatian toadflax control. The experiment was conducted at one site. The results provide the framework for the subsequent greenhouse experiment. (See below). The field experiment was located in Longmont, Colo. (lat 40° 14′57.53″N, long 105° 12′35.46″W) on Rabbit Mountain Open Space, the easternmost point of the foothills in Boulder County. The canopy cover of actively growing downy brome and Dalmatian toadflax at peak standing crop was approximately 85% and 30%, respectively. […]\nFor the herbicide efficacy field experiment, repeated measures analysis of variance (ANOVA) was used to determine the effects of herbicide treatments on long-term Dalmatian toadflax and downy brome control. Percent control data were first analyzed in SAS 9.3 using Proc MIXED, with year after treatment defined as the repeated measure (SAS Institute 2010). […] Dalmatian toadflax and downy brome control response variables were analyzed separately, and main effects and interactions were tested at the α=0.05 significance level. […] To determine herbicide impacts on residual Dalmatian toadflax and downy brome control, the significant treatment-by-year interaction was evaluated using the Proc GLIMMIX method and the LINES statement. […]"}, "[2]": {"tested_on": "invasive winter annual grass (downy brome, feral rye, Japanese brome)", "assay": "Invasive winter annual grass field efficacy studies, biomass as percent of non-treated (Sites 1 and 2 combined)", "format": "in vivo, Bromus tectorum, Secale cereale, Bromus japonicus", "conditions": "1 YAT, EPRE timing, imazapic 123 g·ai·ha^−1", "description": "In year 1, field experiments were conducted to compare the effectiveness of indaziflam and imazapic for long-term invasive winter annual grass control, and to evaluate the response of the native plant communities. The experiments were established at two sites on the Colorado Front Range dominated by invasive winter annual grasses. Site 1 (lat 40° 15′2″N, long 105° 12′56″W) was infested with equal amounts of downy brome and Japanese brome. Site 2 (lat 40° 43′23″N, long 104° 55′58″W) was infested with feral rye. These two sites were approximately 58 km apart. Site 1 was located on Rabbit Mountain Open Space (Boulder County). Site 2 was located on a Colorado Parks and Wildlife Area (Larimer County). Before herbicide application in July, visual estimates were made across the entire study area of percentage of living canopy cover for all species present at both sites.\nSite 1 was characterized by ˜80-100% downy brome and Japanese brome canopy cover with a dense fine-fuel layer, e.g., thatch, (2 to 5 cm), and a scattered stand of co-occurring species (˜0-10% canopy cover, Table 4). […]\nBiomass harvests and species richness evaluations were conducted in August (year 2 and year 3) to evaluate invasive winter annual grass control and response of co-occurring species. […] Additionally, at Site 1, species richness was calculated for each treatment as a simple estimate of biological diversity. […]"}, "[3]": {"conditions": "pH 7; cited from earlier work"}},
  "data": [
    {"smiles": "Cc1cnc(C2=NC(=O)C(C)(C(C)C)N2)c(C(=O)O)c1", "note": "(stereo not drawn) [Imazapic, imazapic]", "values": [
      {"measurement": "residual downy brome control", "setting": "[1]", "result": "less than 25%"},
      {"measurement": "invasive winter annual grass control", "setting": "[2]", "result": "~41", "unit": "%"},
      {"measurement": "Log Kow", "setting": "[3]", "result": 0.01}
    ]}
  ]
}
